The text below walks through data of patent US10799518B2, “Use of agonists of formyl peptide receptor 2 for treating dermatological diseases” (Allergan, Inc., priority 2013, dated 2020).

One experiment has as its target human FPR2 receptor (Homo sapiens (Human), UniProt P25090). In words: FLIPR Ca+2 response in HEK-Gα16 cells stably expressing the human FPR2 receptor. The experiment is classed as cell-based. Particulars: Table 4; for EC50: HEK-Gα16 human FPR2, FLIPR; for FPR2 (% eff): value in parentheses, given mostly as fraction. The method, then: HEK-Gα16 cells stably expressing the human FPR2 receptor was utilized. Cells were plated into 384-well poly-D-lysine coated plates at a density of 18,000 cells per well one day prior to use. The growth media was DMEM medium supplemented with 10% fetal bovine serum (FBS), 1% antibiotic-antimycotic, 50 μg/ml hygromycin, and 400 μg/ml geneticin. On the day of the experiment, the cells were washed twice with Hank's Balanced Salt Solution supplemented with 20 mM HEPES (HBSS/hepes buffer). The cells were then dye loaded with 2 μM Fluo-4 diluted in the HBSS/Hepes buffer and incubated at 37° C. for 40 minutes. Extracellular dye was removed by washing the cell plates four times prior to placing the plates in the FLIPR (Fluorometric Imaging Plate Reader, Molecular Devices). Ligands were diluted in HBSS/Hepes buffer and prepared in 384-well microplates. Data for Ca^+2 responses were obtained in relative fluorescence units.

The next experiment concerns the target FPRL-1 (Homo sapiens (Human), UniProt P25090). In words: FPRL-1 Ga16-CHO EC50 (efficacy). The experiment is classed as cell-based. The following applies: Table 3; value in parentheses.
Experiment [1] has as its system LL-37-induced inflammation in mouse ears. The experiment can be described thus: LL37-induced model of rosacea in mice (ear thickness). The experiment is classed as in vivo. The following applies: topical to ears; p<0.05 vs. vehicle; FIG. 2. The method, then:
LL37-Induced Model of Rosacea in Mice:
Prior to dosing, animals are lightly anaesthetized with isofluorane and baseline right and left ear thickness measurements are made with a digital caliper (Mitutoyo 293-340). At t=−1 hrs, animals are lightly anaesthetized with isoflurane to allow topical application (dorsal side) of 10 μL of FPR2 agonist formulated in a vehicle consisting of PBS:ethanol (50:50), or vehicle control to both ears. At t=0 hr, mice are re-anaesthetized. Following ear thickness measurements, 20 uL of LL-37 (100 μM) is injected into the right ear, while PBS is injected into the left ear. Additional ear thickness measurements are taken at t=3 and 6 hours. After the last time point, mice are euthanized by CO2 inhalation and ears collected for additional analyses.

Sequence of FPRL-1 (P25090 whole entry): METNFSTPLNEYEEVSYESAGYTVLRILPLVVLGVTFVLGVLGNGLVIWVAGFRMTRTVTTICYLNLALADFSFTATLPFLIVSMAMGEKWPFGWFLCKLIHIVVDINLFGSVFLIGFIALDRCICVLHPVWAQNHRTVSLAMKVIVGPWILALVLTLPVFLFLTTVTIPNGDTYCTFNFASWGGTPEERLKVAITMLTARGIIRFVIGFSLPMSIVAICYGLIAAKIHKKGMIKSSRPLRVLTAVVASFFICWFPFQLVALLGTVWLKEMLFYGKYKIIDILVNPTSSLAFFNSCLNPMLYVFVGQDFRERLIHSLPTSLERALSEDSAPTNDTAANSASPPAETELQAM
Sequence of human FPR2 receptor (P25090 whole entry): as above

In the case of `O=C(O)[C@@H]1C2CCC([C@@H]1C(=O)Nc1ccc(Br)cc1)C21CC1` (relative stereo) [Compound 14, rel-(2R,3 S)-3-[(4-brornophenyl)carbarnoyl]spiro [bicyclo[2.2.1]heptane-7,1′-cyclopropane]-2-carboxylic acid], at human FPR2 receptor, the EC50 worked out at 4 nM and the FPR2 (% eff) worked out at 90%.

`CCC1(CC)NC(=O)N(CC(=O)Nc2ccc(F)cc2)C1=O` [2-(4,4-diethyl-2,5-dioxoimidazolidin-1-yl)-N-(4-fluorophenyl)acetamide]: the “FPRL-1 Ga16-CHO (efficacy)” value on FPRL-1 was 0.67.

Consider `CC[C@H](C)[C@H](NC(=O)Nc1ccc(Br)cc1)C(=O)NCC(=O)O` [Compound 3, {[(2S,3S)-2-{[(4-bromophenyl)carbamoyl]amino}-3-methylpentanoyl]amino} acetic acid], for which the “inflammation induced by LL-37 in mouse ears” value in experiment [1] is “Anti-inflammatory activity”.

For the compound `CC(C)C[C@H](NC(=O)Nc1ccc(Br)cc1F)C(=O)NCC(=O)O` [Compound 7, {[(2S)-2-{[(4-bromo-2-fluorophenyl)carbamoyl]amino}-4-methylpentanoyl]amino} acetic acid], the “inflammation induced by LL-37 in mouse ears” value in experiment [1] is “Anti-inflammatory activity”.

As for `CSc1ccc(NC(=O)C2C(C(=O)O)C3C=CC2C32CC2)cc1` (centres unmarked) [Compound 31, 3-{[4-(methylsulfanyl)phenyl]carbamoyl} spiro[bicyclo[2.2.1]heptane-7,1′-cyclopropane]-5-ene-2-carboxylic acid], on human FPR2 receptor, the EC50 came to 14 nM and the FPR2 (% eff) is 96%.

`CC(C)C[C@H](NC(=O)Nc1ccc(Br)cc1)C(=O)N[C@@H](C)C(=O)O` [Compound 90, (2S)-2-{[(2S)-2-{[(4-bromophenyl)carbamoyl]amino}-4-methylpentanoyl]amino} propanoic acid]: at human FPR2 receptor, the FPR2 (% eff) was determined as 100%.

Turning to `CC(C)C[C@H](NC(=O)Nc1ccc(Br)cc1)C(=O)NCC(O)CO` (stereo partly drawn) [Compound 95, (2S)-2-{[(4-bromophenyl)carbamoyl]amino}-N-(2,3-dihydroxypropyl)-4-methylpentanamide], the FPR2 (% eff) on human FPR2 receptor was 98%.

With `CCOP(=O)(O)CNC(=O)[C@H](CC(C)C)NC(=O)Nc1ccc(Br)cc1` [Compound 105, ethyl hydrogen ({[(2S)-2-{[(4-bromophenyl)carbamoyl]amino}-4-methylpentanoyl]amino}methyl)phosphonate], the FPR2 (% eff) at human FPR2 receptor turned out to be 88%.

As for `CCOP(=O)(O)CNC(=O)[C@@H](NC(=O)Nc1ccc(Br)cc1)[C@@H](C)CC` [Compound 115, ethyl hydrogen ({[(2S,3S)-2-{[(4-bromophenyl)carbamoyl]amino}-3-methylpentanoyl]amino}methyl)phosphonate], the FPR2 (% eff) on human FPR2 receptor worked out at 88%.

Regarding `CC(C)C[C@H](NC(=O)Nc1ccc(Br)cc1)C(=O)NCc1cc(O)no1` [Compound 116, (2S)-2-{[(4-bromophenyl)carbamoyl]amino}-N-[(3-hydroxy-1,2-oxazol-5 - yl)methyl]-4-methylpentanamide], at human FPR2 receptor, the FPR2 (% eff) stood at 100%.

Regarding `CCC[C@H](NC(=O)Nc1ccc(Br)cc1)C(=O)NCP(=O)(OCC)OCC` [Compound 117, diethyl (1[(2S)-2-1[(4-bromophenyl)carbamoyl]amino}pentanoyl]amino}methyl) phosphonate], the FPR2 (% eff) at human FPR2 receptor is 100%.

In the case of `CCOP(=O)(CNC(=O)[C@H](Cc1ccccc1)NC(=O)Nc1ccc(Br)cc1)OCC` [Compound 118, diethyl ({[(2S)-2-{[(4-bromophenyl)carbamoyl]amino}-3-phenylpropanoyl]amino}methyl)phosphonate], the FPR2 (% eff) on human FPR2 receptor is 93%.

In turn, `CCOP(=O)(CCNC(=O)[C@H](CC(C)C)NC(=O)Nc1ccc(Br)cc1)OCC` [Compound 119, diethyl (2-{[(2S)-2-{[(4-bromophenyl)carbamoyl]amino}-4-methylpentanoyl]amino}ethyl) phosphonate] yielded an EC50 at human FPR2 receptor of 16.1 nM.

`CCC[C@H](NC(=O)Nc1ccc(Br)cc1)C(=O)NCP(=O)(O)OCC` [Compound 123, ethyl hydrogen ({[(2S)-2-{[(4-bromophenyl)carbamoyl]amino}pentanoyl]amino}methyl) phosphonate]: the FPR2 (% eff) on human FPR2 receptor is 96%.

With `CC(C)C[C@H](NC(=O)Nc1ccc(C(F)(F)F)cc1)C(=O)NCC(=O)O` [Compound 124, {[(2S)-4-methyl-2-({[4-(trifluoromethyl)phenyl]carbamoyl}amino)pentanoyl]amino}acetic acid], the FPR2 (% eff) at human FPR2 receptor was determined as 100%.

As to `CCOP(=O)(O)CNC(=O)[C@H](Cc1ccccc1)NC(=O)Nc1ccc(Br)cc1` [Compound 126, ethyl hydrogen ({[(2S)-2-{[(4-bromophenyl)carbamoyl]amino}-3-phenylpropanoyl]amino}methyl)phosphonate], the FPR2 (% eff) at human FPR2 receptor was 100%.

As for `CCOP(=O)(CNC(=O)[C@H](CC(C)C)NC(=O)Nc1ccc(C(F)(F)F)cc1)OCC` [Compound 134, diethyl ({[(2S)-4-methyl-2-({[4-(trifluoromethyl)phenyl]carbamoyl}amino)pentanoyl]amino}methyl)phosphonate], at human FPR2 receptor, the FPR2 (% eff) came out at 97%.

Consider `CCOP(=O)(O)CNC(=O)[C@H](CC(C)C)NC(=O)Nc1ccc(C(F)(F)F)cc1` [Compound 135, ethyl hydrogen ({[(2S)-4-methyl-2-({[4-(trifluoromethyl)phenyl]carbamoyl}amino)pentanoyl]amino}methyl)phosphonate], for which the FPR2 (% eff) at human FPR2 receptor is 91%.

With `CCOP(=O)(CNC(=O)[C@H](CC(C)C)NC(=O)Nc1ccc(SC)cc1)OCC` [Compound 138], on human FPR2 receptor, the FPR2 (% eff) is 91%.

With `CCOP(=O)(CCNC(=O)CC1(C(C)C)NC(=O)N(NC(=O)Nc2ccc(Br)cc2)C1=O)OCC` (centres unmarked) [Compound 152, diethyl [2-({[1-{[(4-bromophenyl)carbamoyl]amino}-2,5-dioxo-4-(propan-2-yl)imidazolidin-4-yl]acetyl}amino)ethyl] phosphonate], at human FPR2 receptor, the FPR2 (% eff) stood at 100%.

Take `O=C(CN1C(=O)C2CC=CCC2C1=O)Nc1ccc(Br)cc1` (centres unmarked) [N-(4-bromophenyl)-1,3,3a,4,7,7a-hexahydro-1,3-dioxo-2H-isoindole-2-acetamide]: on FPRL-1, the “FPRL-1 Ga16-CHO (efficacy)” value is reported as 0.98.

For the compound `O=C(CN1C(=O)C2C3C=CC(C3)C2C1=O)Nc1ccc(Br)cc1` (centres unmarked) [N-(4-bromophenyl)-1,3,3a,4,7,7a-hexahydro-1,3-dioxo-4,7-methano-2H-isoindole-2-acetamide], the “FPRL-1 Ga16-CHO (efficacy)” value at FPRL-1 was determined as 0.90.

Regarding `O=C(CN1C(=O)NC2(CCCC2)C1=O)Nc1ccc(Br)cc1` [N-(4-bromophenyl)-2-(2,4-dioxo-1,3-diazaspiro[4.4]non-3-yl)acetamide], on FPRL-1, the “FPRL-1 Ga16-CHO (efficacy)” value is 0.96.

Consider `O=C(CN1C(=O)NC2(CCCCC2)C1=O)Nc1ccc(Br)cc1` [N-(4-bromophenyl)-2-(2,4-dioxo-1,3-diazaspiro[4.5]dec-3-yl)acetamide], for which the “FPRL-1 Ga16-CHO (efficacy)” value at FPRL-1 amounted to 0.89.

Consider `O=C(CN1C(=O)NC2(CCCCCC2)C1=O)Nc1ccc(Br)cc1` [N-(4-bromophenyl)-2-(2,4-dioxo-1,3-diazaspiro[4.6]undec-3-yl)acetamide], for which the “FPRL-1 Ga16-CHO (efficacy)” value at FPRL-1 amounted to 0.96.

For the compound `CCCC1(CCC)NC(=O)N(CC(=O)Nc2ccc(Br)cc2)C1=O` [N-(4-bromophenyl)-2-(2,5-dioxo-4,4-dipropylimidazolidin-1-yl)acetamide], the “FPRL-1 Ga16-CHO (efficacy)” value on FPRL-1 is 0.98.

With `CCC1(CC)NC(=O)N(CC(=O)Nc2ccc(Br)cc2)C1=O` [N-(4-bromophenyl)-2-(4,4-diethyl-2,5-dioxoimidazolidin-1-yl)acetamide], the “FPRL-1 Ga16-CHO (efficacy)” value on FPRL-1 is given as 0.98.

Turning to `CC1(C)NC(=O)N(CC(=O)Nc2ccc(Br)cc2)C1=O` [N-(4-bromophenyl)-2-(4,4-dimethyl-2,5-dioxoimidazolidin-1-yl)acetamide], the “FPRL-1 Ga16-CHO (efficacy)” value on FPRL-1 is on record as 0.94.

For the compound `CC1(C2CC2)NC(=O)N(CC(=O)Nc2ccc(Br)cc2)C1=O` (centres unmarked) [N-(4-bromophenyl)-2-(4-cyclopropyl-4-methyl-2,5-dioxoimidazolidin-1-yl)acetamide], the “FPRL-1 Ga16-CHO (efficacy)” value at FPRL-1 was determined as 0.84.

On to `CCC1(c2ccccc2)NC(=O)N(CC(=O)Nc2ccc(Br)cc2)C1=O` (centres unmarked) [N-(4-bromophenyl)-2-(4-ethyl-2,5-dioxo-4-phenylimidazolidin-1-yl)acetamide], for which the “FPRL-1 Ga16-CHO (efficacy)” value at FPRL-1 was determined as 0.83.

For `CCC1(C)NC(=O)N(CC(=O)Nc2ccc(Br)cc2)C1=O` (centres unmarked) [N-(4-bromophenyl)-2-(4-ethyl-4-methyl-2,5-dioxoimidazolidin-1-yl)acetamide], at FPRL-1, the “FPRL-1 Ga16-CHO (efficacy)” value is 1.0.

In the case of `CC1(CCc2ccccc2)NC(=O)N(CC(=O)Nc2ccc(Br)cc2)C1=O` (centres unmarked) [N-(4-bromophenyl)-2-[4-methyl-2,5-dioxo-4-(2-phenylethyl)imidazolidin-1-yl]acetamide], the “FPRL-1 Ga16-CHO (efficacy)” value on FPRL-1 is given as 0.88.

`CCC1(CC)NC(=O)N(CC(=O)Nc2ccc(Cl)cc2)C1=O` [N-(4-chlorophenyl)-2-(4,4-diethyl-2,5-dioxoimidazolidin-l-yl)acetamide]: the “FPRL-1 Ga16-CHO (efficacy)” value on FPRL-1 stood at 0.79.

By EC50 is commonly meant the concentration needed to bring the measured effect to its halfway point. A lower EC50 goes with an effect from little substance.
